Measured values as given in patent publication US12533341B2, “Small molecule inhibitors of voltage-gated sodium channel 1.7 and methods of using same” (Duke University, priority 2019, dated 2026).
Entries after “also recorded” stand apart in the source; their conditions may differ.

Key:
[1] = system: acute and chronic itch; experiment: Itch models (acute, dry skin, allergic contact dermatitis); type: in vivo, mouse; conditions: intrathecally at a dose of 30 mg/kg, dry skin and ACD itch models
Method: Mice are habituated to the testing environment daily for at least two days before analysis. Mice are shaved at the back of the neck the day before injection. Mice are left in small plastic chambers (14×18×12 cm) on an elevated metal mesh floor and allowed 30 min for habituation before examination. To elicit acute itch, pruritic agent 48/80 or chloroquine are injected intradermally in the nape of the neck and the number of scratched are counted every 5 min for 30 min after the injection. A scratch is counted when a mouse lifts its hindpaw to scratch the shaved region and returns the paw to the floor or to the mouth for the licking (Liu, et al. 2012; J Cin. Invest. 122(6):2195-2207).
To induce chronic itch, the neck skin is painted with acetone and diethyl ether (1:1) followed by water twice a day for 4 days, and spontaneous itch is examined by counting the number of scratches for 60 minutes on day 5. (Liu, et al. 2012, supra).
Chronic itch is induced by applying the hapten 1-fluoro-2,4-dinitrobenzene (DNFB) onto the back skin. (Liu, Ji, et al. 2016; Pain. 157(4):806-817; Zhao, et al. 2013; J Clin. Invest. 123(11):4769-4780). DNFB is dissolved in a mixture of acetone:olive oil (4:1) for sensitization and challenge. One day before sensitization, the surface of the abdomen and the nape of the neck are shaved. Mice are sensitized with 0.5% DNFB solution (50 μL) by topical application to a ˜2 cm^2 area of abdomen skin. Five days later, mice are challenged with 0.2% DNFB solution (30 μL) by painting the shave neck area, then every other day for one week. Spontaneous scratching behaviors are videoed for 1 hour, at 24 hours after each challenge. The behavioral tests of itch are performed blindly.
Animals in the itch models are dosed with N-substituted indoles 10, 11, and 12, which are administered intrathecally at a dose of 30 mg/kg.

[2] = system: neuropathic pain (CCI, SNI); experiment: Neuropathic pain models (CCI, SNI); type: in vivo, mouse; conditions: intrathecally at a dose of 30 mg/kg; CCI and SNI models
Method: Neuropathic pain is produced by chronic constriction injury (CCI) of the sciatic nerve. Mice are anesthetized with isoflurane, and three ligatures are 7-0 prolene placed around the nerve proximal to the trifurcation (1 mm between ligatures). The ligatures are loosely tied until a short flick of the ipsilateral hind limb is observed (Chen, Ji, et al. 2015; J Clin. Invest. 125(8):3226-3240).
SNI model. Neuropathic pain is produced by spared nerve injury (SNI). SNI surgery is conducted with a 5.0 silk tight ligation of the tibial and common peroneal nerves followed by transection and removal of a 3-5 mm nerve portion.
Animals in the neuropathic pain models are dosed with N-substituted indoles according to the present disclosure [N-(methylsulfonyl)-3-(3-oxo-1-(3-phenoxyphenyl)-3-((2-(pyrrolidin-1-yl)ethyl)amino)propyl)-1H-indole-1-carboxamide (10); (Z)-N-(5-((3-(3-oxo-1-(3-phenoxyphenyl)-3-((2-(pyrrolidin-1-yl)ethyl)amino)propyl)-1H-indol-1-yl)sulfonyl)-1,3,4-thiadiazol-2-yl)acetimidic acid (11); and 3-(3-phenoxyphenyl)-N-(2-(pyrrolidin-1-yl)ethyl)-3-(1-(thiazol-2-ylsulfonyl)-1H-indol-3-yl)propanamide (12)]. The compounds are synthesized according to the route outlined in Scheme 1 and are administered intrathecally at a dose of 30 mg/kg.

[3] = system: paclitaxel-induced mechanical allodynia; experiment: Paclitaxel-induced neuropathic pain model (von Frey); type: in vivo, mouse; conditions: intrathecal 10 nmol and 30 nmol, mice
Method: Intraperitoneal injection of paclitaxel (PTX, 2 mg/kg for multiple injections at day 0, 2, 4, and 6) was given to generate chemotherapy-associated neuropathic pain. Neuropathic pain behavior was tested 3 weeks after PTX injection using a von Frey test. Briefly, animals were habituated to the testing environment daily for at least 2 days before the baseline testing. Animals were confined in boxes placed on an elevated metal mesh floor and the hind paws were stimulated with a series of von Frey hairs with logarithmically increasing stiffness (0.02-2.56 g, Stoelting), presented perpendicularly to the central plantar surface. The 50% paw withdrawal threshold was determined by an up-down method.

[4] = biological target: human Nav1.7 (Homo sapiens, UniProt Q15858); experiment: Whole-cell patch-clamp of sodium currents in Nav1.7-expressing HEK293 cells; type: cell-based; conditions: 10 μM, screen of compounds 1-9 (FIG. 3)
Method: HEK-hNav1.7 stable cell line was purchased from SB Drug Discovery (Glasgow, United Kingdom). Human embryonic kidney 293 (HEK293) cells were obtained from the ATCC and maintained at the Duke cell culture facility. Cells were cultured in high-glucose (4.5 g/L) DMEM containing 10% (v/v) FBS (Gibco) and streptomycin/penicillin. For Nav1.7-expressing HEK293 cells, an additional antibiotic, blasticidin, was included. hNav1.5 transfection was performed by Lipofectamine 2000 at 70% confluence using 2 μg cDNA. The transfected cells were cultured in the same growth medium for 48 h before biochemical or electrophysiological studies.
Whole-cell patch-clamp recordings were conducted at room temperature. Patch pipettes pulled from borosilicate capillaries (World Precision Instruments, Inc., Sarasota, FL) were used to record transient Na currents with an Axopatch-200B amplifier with a Digidata 1440A (Axon Instruments, Sunnyvale CA). The resistance was set to 3-4 MΩ when filled with pipette solution. The pipette solution contained (in mmol/L): CsCl 130, NaCl 9, MgCl2 1, EGTA 10, HEPES 10, adjusted to pH 7.3 with CsOH. The external solution for recording transient Na^+ currents contained (in mmol/L): NaCl 131, TEACl 10, CsCl 10, CaCl2) 1, MgCl2 2, CdCl2 0.3, 4-aminopyridine 3, HEPES 10, glucose 10, adjusted to pH 7.4 with NaOH. The recording chamber (300 μL) was continuously superfused at 3-4 mL/min. Series resistance was compensated (>80%) and leak subtraction was performed. Data were low-pass-filtered at 2 kHz and sampled at 10 kHz. pClamp10 (Axon Instruments) software was used during experiments and analysis. In voltage-clamp experiments, transient Na+ currents were evoked by a test pulse to 0 mV from the holding potential (−70 mV).
The effects of the 9 selected compounds on Nav1.7 channel activities were tested using patch-clamp recordings on human Nav1.7 expressing HEK293 cells (FIG. 3, FIG. 4). In each cell, sodium currents were recorded for 13 min, and candidate inhibitors (10 μM) were incubated for 2 min after 2 min baseline recording (FIG. 3). Compound was applied at the beginning of the second minute for two minutes (denoted as a horizontal line above the X-axis). Sodium currents were recorded at equal intervals (every 20 seconds, 40 recordings per compound per cell). Data was analyzed with a two-way repeated measures ANOVA, followed by a post-hoc test of the last timepoint Bonferroni-corrected for 9 pairwise comparisons (each compound was compared with control). […] Sample size n=3 to 7 cells per group.
For FIG. 4C, sample size was n=5 to 7 cells per group. Compound was applied at the beginning of the second minute for two minutes (denoted as a horizontal line above the X-axis). Sodium currents were recorded every 20 seconds.

Chain of human Nav1.7 (Q15858 whole entry): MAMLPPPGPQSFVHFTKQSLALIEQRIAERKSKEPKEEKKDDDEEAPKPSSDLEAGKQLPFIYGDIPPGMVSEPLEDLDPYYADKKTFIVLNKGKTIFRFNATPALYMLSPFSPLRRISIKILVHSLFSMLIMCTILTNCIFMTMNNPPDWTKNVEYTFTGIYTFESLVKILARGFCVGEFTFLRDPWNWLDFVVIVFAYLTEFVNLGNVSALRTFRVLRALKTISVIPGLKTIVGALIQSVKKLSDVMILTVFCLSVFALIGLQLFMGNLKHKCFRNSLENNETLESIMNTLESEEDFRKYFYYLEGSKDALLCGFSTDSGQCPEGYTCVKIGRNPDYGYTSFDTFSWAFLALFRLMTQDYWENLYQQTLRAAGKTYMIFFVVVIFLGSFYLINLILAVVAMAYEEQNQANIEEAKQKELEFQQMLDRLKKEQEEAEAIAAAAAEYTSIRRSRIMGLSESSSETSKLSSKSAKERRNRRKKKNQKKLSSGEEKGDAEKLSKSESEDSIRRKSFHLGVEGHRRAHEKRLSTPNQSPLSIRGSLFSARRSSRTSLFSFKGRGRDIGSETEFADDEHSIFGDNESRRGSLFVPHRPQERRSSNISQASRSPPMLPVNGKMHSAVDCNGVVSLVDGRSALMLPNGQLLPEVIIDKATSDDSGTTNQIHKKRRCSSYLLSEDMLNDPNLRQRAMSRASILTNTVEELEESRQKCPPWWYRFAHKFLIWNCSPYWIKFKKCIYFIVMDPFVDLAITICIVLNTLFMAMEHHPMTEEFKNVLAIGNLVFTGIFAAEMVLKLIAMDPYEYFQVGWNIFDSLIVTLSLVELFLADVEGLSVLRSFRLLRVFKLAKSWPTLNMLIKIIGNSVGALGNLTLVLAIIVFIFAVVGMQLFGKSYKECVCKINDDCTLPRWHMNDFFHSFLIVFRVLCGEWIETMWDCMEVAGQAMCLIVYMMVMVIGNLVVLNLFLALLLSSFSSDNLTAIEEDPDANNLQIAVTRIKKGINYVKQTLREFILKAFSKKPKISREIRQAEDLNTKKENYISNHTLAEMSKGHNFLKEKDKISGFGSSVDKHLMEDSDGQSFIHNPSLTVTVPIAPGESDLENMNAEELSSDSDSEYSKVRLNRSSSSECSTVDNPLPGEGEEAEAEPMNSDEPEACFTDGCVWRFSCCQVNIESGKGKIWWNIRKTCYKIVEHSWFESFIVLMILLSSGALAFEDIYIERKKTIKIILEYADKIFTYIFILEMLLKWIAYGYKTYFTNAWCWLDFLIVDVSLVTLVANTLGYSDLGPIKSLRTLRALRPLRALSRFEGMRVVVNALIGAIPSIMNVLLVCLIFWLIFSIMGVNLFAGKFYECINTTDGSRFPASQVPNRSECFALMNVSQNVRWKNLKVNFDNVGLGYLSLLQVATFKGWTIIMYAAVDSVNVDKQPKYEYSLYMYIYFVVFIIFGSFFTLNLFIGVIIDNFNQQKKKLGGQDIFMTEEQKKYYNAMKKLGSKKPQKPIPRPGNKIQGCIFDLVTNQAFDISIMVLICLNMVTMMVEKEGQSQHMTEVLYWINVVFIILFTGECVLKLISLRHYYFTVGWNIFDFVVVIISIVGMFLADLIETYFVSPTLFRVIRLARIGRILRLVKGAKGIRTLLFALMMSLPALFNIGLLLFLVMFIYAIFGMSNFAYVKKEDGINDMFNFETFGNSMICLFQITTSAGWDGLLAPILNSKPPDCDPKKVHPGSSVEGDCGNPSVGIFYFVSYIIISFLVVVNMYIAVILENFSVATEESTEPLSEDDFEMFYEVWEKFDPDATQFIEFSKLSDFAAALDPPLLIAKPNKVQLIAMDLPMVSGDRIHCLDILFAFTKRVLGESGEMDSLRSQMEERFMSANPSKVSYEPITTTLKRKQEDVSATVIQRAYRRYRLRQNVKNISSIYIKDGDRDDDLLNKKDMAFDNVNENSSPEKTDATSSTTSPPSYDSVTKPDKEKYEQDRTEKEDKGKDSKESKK

| Compound | reduction of scratching in itch models [1] | reduction of pain in neuropathic pain models [2] | anti-allodynic effect in the paclitaxel model [3] | difference in relative current from the control group at the last measurement [4] |
| --- | --- | --- | --- | --- |
| CC(=O)Nc1nnc(S(=O)(=O)n2cc(C(CC(=O)NCCN3CCCC3)c3cccc(Oc4ccccc4)c3)c3ccccc32)s1 (stereo not shown) [Compound 11, (Z)-N-(5-((3-(3-oxo-1-(3-phenoxyphenyl)-3-((2-(pyrrolidin-1-yl)ethyl)amino)propyl)-1H-indol-1-yl)sulfonyl)-1,3,4-thiadiazol-2-yl)acetimidic acid] | Reduction of scratching is observed | Reduction of pain is observed | – | – |
| Nc1[nH]ncc1-c1cc(Cl)ccc1Oc1cc(F)c(S(=O)(=O)Nc2cscn2)cc1Cl [PF-05089771, reference compound] | – | – | failed to produce any anti-allodynic effect; also recorded: did not produce anti-allodynia effects | – |
| O=C(CC(c1cccc(Oc2ccccc2)c1)c1cn(S(=O)(=O)c2nccs2)c2ccccc12)NCCN1CCCC1 (stereo not shown) [Compound 12, 3-(3-phenoxyphenyl)-N-(2-(pyrrolidin-1-yl)ethyl)-3-(1-(thiazol-2-ylsulfonyl)-1H-indol-3-yl)propanamide] | Reduction of scratching is observed | Reduction of pain is observed | – | – |
| COc1ccc(Cn2cc(C(CC(=O)NCc3ccco3)c3cccc(Oc4ccccc4)c3)c3ccccc32)cc1 (stereo not shown) [Compound 8] | – | – | – | 0.36 |
| CS(=O)(=O)NC(=O)n1cc(C(CC(=O)NCCN2CCCC2)c2cccc(Oc3ccccc3)c2)c2ccccc21 (stereo not shown) [Compound 10, N-(methylsulfonyl)-3-(3-oxo-1-(3-phenoxyphenyl)-3-((2-(pyrrolidin-1-yl)ethyl)amino)propyl)-1H-indole-1-carboxamide] | Reduction of scratching is observed | Reduction of pain is observed | – | – |
| Cc1ccc(Cn2cc(C(CC(=O)NCc3ccncc3)c3cccc(Oc4ccc(Cl)cc4)c3)c3ccccc32)cc1 (stereo not shown) [Compound 5] | – | – | – | 0.29 |
| COc1ccc(Cn2cc(C(CC(=O)NCc3ccccc3)c3cccc(OCc4ccccc4)c3)c3ccccc32)cc1 (stereo not shown) [Compound 7] | – | – | – | 0.35 |
